Test results reported in patent EP0004835A1, “Ethanolamine compounds, processes for their preparation, pharmaceutical preparations containing them and their medicinal use” (priority 1978, dated 1979).
“And” between values parts separate entries of the source, which are not always exact repeats. Identical values can stand only once. Counter-ions that a name gives are not always drawn. Like-named read-outs stand apart in the source and are kept apart here.

Experiments:
[1] = test system: electrically induced contractions of the soleus muscle; experiment: Tremorogenic effect in anaesthetized cat (soleus muscle, simultaneous recording); format: in vivo; conditions: narcotized cat, i.v., based on molar dose giving 30 % decrease of electrically induced soleus contractions, terbutaline = 1
Procedure: (§1) A. Simultaneous recording of bronchospasmolytic effect, tremorogenic effect and heart stimulating effect
(§2) The bronchospasmolytic effect and the tremorogenic effect were measured simultaneously in anaesthetized cat.
(§3) The method used is described in detail by 0 A T Olsson, Acta pharmacol et toxicol 34, 106-114 (1974).
(§4) Cats weighing 2.5-3.5 kg are anaesthetized with pento- barbital (mebumalum NFN) at first by an intraperitoneal injection (30 mg/kg) and afterwards by continuous intravenous infusion to keep the level of anaesthesia constant during the experiment.
The soleus muscle in the hind limb, consisting mainly a -slow contracting fibres, is prepared essentially according to Bowman & Zaimis, J Physiol 144, 92-107 (1958). The muscle is enclosed in a chamber made of a rubbercovered plastic "hair-curler". The entire leg is wrapped in metal foil covered with plastic to keep the temperature constant at 35-36°C (controlled by thermo couples in the.leg). The cat is placed on its back on a thermostatically controlled operation table and the right hind limb fixed, special care being taken not to impede the blood flow.The tendon is cut and attached to a Grass strain gauge (FT 10C). The isometric tension of the muscle is calibrated to 50 g (resting tension) and 500 g (maximal tension). A plexiglas shielded bipolar Pt-electrode is placed on the tibialis nerve, near the soleus. The incomplete tetanic contractions of the muscle are elicited by a square wave pulse stimulation of the nerve by the use of a Grass S48 stimulator. The pulse duration is 0.05 msec, with frequencies selected in the range 8-12 Hz and the strength between 5-8. volts. The stimulation occurs for 1.8 sec every 20 sec.
(§5) The bronchospasmolytic effect is measured as the dose, calculated in moles per kg bodyweight of the test animal, which gives 30 % decrease of the histamine induced bronchospasm. […] The heart stimulating effect is measured as the dose, calculated in moles per kg bodyweight of the test animal, which gives 25 % increase in the heart frequency.

[2] = test system: histamine induced bronchospasm; experiment: Bronchospasmolytic effect in anaesthetized cat (simultaneous recording); format: in vivo; conditions: narcotized cat, i.v. (brachial vein), based on molar dose giving 30 % decrease of histamine induced bronchospasm, terbutaline = 1
Procedure: as §1, §2, §3, §4
The trachea is cannulated and the lungs inflated with room air by means of a constant volume Braun-respirator. The frequency is 15-20 per min and the tidal volume 8-10 ml per kg, or just sufficient to suppress spontaneous breathing movements and to give about 150 ml/kg/min. The change in tidal volume from administered constricting agents is measured as the amount of air overflow from the delivery of a constant volume to a fixed respiration. The pressure is determined by a water (60-70 mm) pressure threshold and respiratory overflow determined by means of a Grass-volumetric pressure transducer PT 5A. Bronchial tone is increased by inhalation of a histamine aerosol generated in a Roth-Petersen nebulizer from a solution containing 0.1-0.3 mg/ml of histamine and made up to 5 % by glycerol. The nebulizer is connected to the inlet of the respirator when bronchospasm is to be produced. When the respiratory overflow has reached an even level, .the compound to be tested for bronchorealxing activity is injected into the brachial vein.
as §5

heart frequency = experiment: Heart stimulating effect in anaesthetized cat (simultaneous recording); format: in vivo
Procedure: as §1, §3, §4
Arterial blood pressure is measured with a Statham transducer from a cannulated carotid artery. Heart frequency is monitored by means of a tachometer set to trigger off the R-wave of the electro-cardiogram.
as §5

[3] = test system: histamine induced bronchoconstriction; experiment: Onset and duration of bronchospasmolytic activity after oral administration, histamine aerosol, unanaesthetized guinea-pigs; format: in vivo; conditions: result in words
Procedure: These compounds have the structural formulas [drawing 91] (Compound of Example 1) [drawing 92] (Compound of Example 4) The bronchospasmolytic effect was tested as the inhibitory effect on histamine induced bronchoconstriction in unanaesthetized guinea-pigs. The test animals were exposed to a histamine mist generated by a Roth-Petersen nebulizer from a solution of 0.3 mg/ml of histamine-chloride. Guinea-pigs, strain Dunkin-Hartley, both sexes, 160-230 g were used. Saline treated control animals start a forced and irregular breathing after less than 4 minutes exposure to the aerosol. Drug-treated animals sustaining the histamine aerosol 4 minutes without a breathing influence are regarded as protected. The animals were starved for about 15 hours with water ad libitum before the test compound was administered by a stomach tube. Each of the test substances was given in an amount of 4.10^-6 mole/kg bodyweight. Groups of 8-10 animals were tested in the aerosol at 7, 15, 30, 60 and 120 minutes after administration of the test substance. The percentage of the animals which could withstand the aerosol for 4 minutes and for 10 minutes was determined.

a-receptor = a-receptor blocking activity, noradrenaline-induced contraction of rabbit aortic strips; parameters: species or system Albino rabbits; conditions: for IC50: compound added 10 minutes before noradrenaline, called EC 50, 6 preparations from 3 animals, read-out: Concentration inhibiting 50 % noradrenaline-induced contraction
Description: The a-receptor blocking activity of two compounds of the invention was investigated. This effect is relevant in the treatment of asthma. It has been shown, e.g. by Nousiainen et al, Pharmacology 15, 469-477 (1977), that certain compounds having a-blocking effect may potentiate the effects of S-receptor-stimulating agents such as terbutaline.
In the test, the a-receptor blocking substance thymoxamine was used as reference.
Albino rabbits of both sexes (2-3 kg) were used. About 5 cm of the aorta was dissected out as near the arch as possible, transferred to a dish with Krebs solution and cut spirally. Usually 3 preparations were received from the dissected piece of vessel. Each strip was mounted in an organ bath in Krebs solution of 37°C and aerated with carbogen. The load on the preparation was 2 g and the tension changes recorded isometrically on Grass transducer FR03 and polygraph P5.
Noradrenaline, which is a strong a-receptor stimulating agent, exerts a contracting effect on the aortic strips when added to the bath. The a-receptor blocking effect of the test compound is measured by adding the test compound to the organ bath before adding nor-adrenaline.
Noradrenaline solution with a concentration producing 70-80 % of maximal contraction (0.03-0.06 µg/ml) was used. The test compound was added to the organ bath 10 minutes before the addition of noradrenaline.
The results are measured as the concentration of the test compound which inhibits the noradrenaline-induced contraction by 50 % (EC 50).
The EC 50 values are based on tests on 6 preparations obtained from 3 animals.

[4] = test system: histamine induced bronchoconstriction; experiment: Bronchospasmolytic activity at oral and subcutaneous administration, histamine aerosol, unanaesthetized guinea-pigs; format: in vivo; conditions: for ED50: Cavia porcellus, read-out: Dose protecting 50 % of the test animals against the histamine aerosol during more than 4 minutes (ED50)
Procedure: .The bronchospasmolytic activity of a compound of the invention at oral administration was tested on guinea-pigs. The compound according to Example 1 having the code designation D 2343, was tested. Terbutaline was used as reference substance.
The bronchospasmolytic effect was tested as the inhibitory effect on histamine induced bronchoconstriction in unanaesthetized guinea-pigs.
The test animals were exposed to a histamine mist generated by a Roth-Petersen nebulizer from a solution of 0.3 mg/ml of histamine-chloride.
Guinea-pigs, strain Dunkin-Hartle.y, both sexes, 190-250 g were used. Saline treated control animals start a forced and irregular breathing after less than 4 minutes exposure to the aerosol. Drug-treated animals sustaining the histamine aerosol 4 minutes without a breathing influence are regarded as protected. In the study with oral administration, the animals were starved for about 15 hours with water ad libitum before D 2343 or terbutaline was administered by a stomach tube.
Each compound was administered to 30-40 animals.
In the investigation with oral administration the time from drug administration to exposure of the animal to histamine was 30 minutes.
The ED50 doses are calculated on molar basis in moles per kg bodyweight of the test animal.

rat uterus = rat uterus (Rattus norvegicus, UniProt P10608); experiment: Inhibitory activity on oxytocin and carbachol induced contractions of rat uterus in vitro; parameters: species or system Sprague-Dawley rats; conditions: result in words
Procedure: 'The uterus relaxing effect of the compounds of the invention was tested. Terbutaline was used as reference substance.
Female Sprague-Dawley rats, 150-200 g, were used. An oestrogen steroid (Estradurin, Leo), 0.25 mg/100 g, was administered s.c. 4-6 days before the experiments to bring the animals in oesterus.
The uterus horn were cut open longitudinally, mounted in organ baths in Locke solution at 33°C and gassed with carbogen. The contraction of the preparation was producted by oxytocin (Partocon, Ferring) or carbachol and given to the bath 3 min after administration of the test substance in a dose producing 70-80 % of the maximum contraction or 0.005-0.02 IE/ml of oxytocin and 0.2-0.6 µg/ml of carbacho- line chloride. The inhibitory effect produced by the test substance was eliminated by propranolol (1 µg/ml or 0.4x10^-5 M given to the bath 15 minutes before the drugs).
The tension changes were recorded isometrically (transducer FP03 and Grass polygraph P5).
The results are given as the concentration of the test compound which reduces the contraction induced by oxytocin and carbachol, respectively, by 50 % (EC 50).
Oxytocinseries: 10 preparations from 6 animals Carbacholseries: 9 preparations from 5 animals

Acute toxicity in mice = conditions: mouse, in vivo
Procedure: The acute toxicity of the compound D 2343 of the invention was investigated.
Male mice (NMRI) 20-25 g were used. The test compound was administered intravenously (by tail vein), subcutaneously. intraperitoneally and orally (by stomach tube to starved animals) in 6 dose levels in log- sequence with 10 or more animals tested at each dose level to determine the LD50'
After toxic doses the death followed within the first hour after i.v., s.c. and i.p. and during the first three hours after p.o. administration. No further mortality was noted during the following 5 days the animals were observed.

[5] = 0.5 h, Oral administration (stomach tube, starved), 30 minutes before histamine
[6] = sc, 0.25 h, Subcutaneous administration, 15 minutes before histamine challenge

Sequence of rat uterus (P10608 whole entry): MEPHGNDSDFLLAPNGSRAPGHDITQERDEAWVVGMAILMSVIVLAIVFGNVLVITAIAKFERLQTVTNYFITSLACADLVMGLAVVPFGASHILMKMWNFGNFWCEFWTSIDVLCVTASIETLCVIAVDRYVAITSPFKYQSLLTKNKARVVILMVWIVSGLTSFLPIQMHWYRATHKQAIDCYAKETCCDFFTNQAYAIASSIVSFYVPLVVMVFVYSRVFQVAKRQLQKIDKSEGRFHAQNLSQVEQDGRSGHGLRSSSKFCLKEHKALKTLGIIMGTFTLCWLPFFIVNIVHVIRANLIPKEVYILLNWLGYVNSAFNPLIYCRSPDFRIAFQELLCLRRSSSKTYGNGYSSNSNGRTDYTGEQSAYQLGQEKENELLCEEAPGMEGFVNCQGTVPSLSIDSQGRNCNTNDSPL

In the case of `CCOc1ccccc1CCC(C)(C)NCC(O)c1ccc(O)cc1` (centres unmarked) [D 2388, 1-(4-hydroxyphenyl)-2-[1,1--dimethyl-3-(2-ethoxyphenyl)propylamino]-ethanol hydrochloride], the “Tremorogenic effect in relation to the tremorogenic effect of terbutaline” value (from here on “Tremorogenic effect in relation”) [1] is reported as 0.8±0.2, the “Bronchospasmolytic effect in relation to the bronchospasmolytic effect of terbutaline” value (shortened to “Bronchospasmolytic effect in relation”) [2] is reported as 1.4±0.2 and the “Heart stimulating effect in relation to the heart stimulating effect of terbutaline” value (“Heart stimulating effect in relation” below) (heart frequency; cat, in vivo, iv) is reported as 1.
For `COc1ccccc1CCC(C)(C)NCC(O)c1ccc(OC(=O)c2ccc(C)cc2)cc1` (centres unmarked) [D 2375, 1-[4-(4-Methylbenzoyloxy)--phenyl]-2-[1,1-dimethyl-3-(2-methoxyphenyl)propylaminolethanol sulfate], the “Tremorogenic effect in relation” value [1] was 0.18 ±0.03, the “Bronchospasmolytic effect in relation” value [2] was 0.25±0.05 and the “Heart stimulating effect in relation” value (heart frequency; cat, in vivo, iv) was 0.26±0.04.
In the case of `COc1ccccc1CCC(C)(C)NCC(O)c1ccc(OC(=O)C(C)(C)C)cc1` (centres unmarked) [D 2367, 1-[4-Pivaloyloxy-phenyl]-2-[1,1-dimethyl-3-(2-methoxyphenyl)propylaminolethanol sulfate], the “duration of bronchospasmolytic activity” value [3] is reported as “considerably prolonged compared to the duration of the compound of example 1”, the “Tremorogenic effect in relation” value [1] is reported as 0.23 ±0.07 and the “Bronchospasmolytic effect in relation” value [2] is reported as 0.28±0.07. For the same molecule, the “Heart stimulating effect in relation” value (heart frequency; cat, in vivo, iv) was 0.16±0.05.
In the case of `CC(=O)Oc1cc(C(C)C)c(OCCN(C)C)cc1C` [Thymoxamine, thymoxamine, reference compound], the IC50 (a-receptor; rabbit aortic strips) is reported as 1500 ± 400 nM.
For `COc1ccccc1CC(C)(C)NCC(O)c1ccc(O)cc1` (centres unmarked) [D 2331, 1-(4-Hydroxyphenyl)-2-[1,1-dimethyl--2-(2-methoxyphenyl)ethylaminol]ethanol sulfate], the “Tremorogenic effect in relation” value [1] was 0.011±0.004, the “Bronchospasmolytic effect in relation” value [2] was 0.12±0.03 and the “Heart stimulating effect in relation” value (heart frequency; narcotized cat, i.v., based on molar dose giving 25 % increase in heart frequency, terbutaline = 1) was 0.02.
`COc1ccccc1CC(C)(C)NCC(O)c1ccc(O)cc1` (centres unmarked) [[drawing]] gave an IC50 (a-receptor; rabbit aortic strips) of 500 ± 200 nM.
With `COc1ccccc1CCC(C)(C)NCC(O)c1ccc(O)cc1.Cl` (centres unmarked) [D 2343, 1-(4-hydroxyphenyl)--2-[1,1-dimethyl-3-(2-methoxyphenyl)propylamino]-ethanol hydrochloride] the ED50 [4, 5] was 2.51 ± 0.39 µmol/kg, the ED50 [4, 6] was 0.34 ± 0.06 µmol/kg and the “times more active than terbutaline” value ([4]; oral administration) was 2.1 times. The “times more active than terbutaline” value ([4]; subcutaneous administration) was 2.7 times, the IC50 (a-receptor; rabbit aortic strips) was 600 ± 200 nM and the “a-receptor blocking activity compared with thymoxamine” value (a-receptor; rabbit aortic strips, result in words) was “higher than the a-blocking effect of thymoxamine”. For the same molecule, the “a-blocking effect in relation to β-stimulating effect” value (a-receptor; result in words, no data shown) was “obtained in the same dose range as its β-stimulating effect”, the “Tremorogenic effect in relation” value ([1]; hydrochloride) was 0.5 and 0.5 ±0.1 and the “Bronchospasmolytic effect in relation” value ([2]; hydrochloride) was 2.9 ±0.6. For the same molecule, the “potency as uterus relaxing agent compared with terbutaline” value (rat uterus) was “more potent as uterus relaxing agent than terbutaline”, the LD50 (Acute toxicity in mice; ip, male mice (NMRI)) was 45 mg/kg and the LD50 (Acute toxicity in mice; ip, male mice (NMRI), M = 378.5) was 120 µmol/kg. It also gave an LD50 (Acute toxicity in mice; iv, male mice (NMRI)) of 13 mg/kg, an LD50 (Acute toxicity in mice; iv, male mice (NMRI), M = 378.5) of 35 µmol/kg and an LD50 (Acute toxicity in mice; po, starved male mice (NMRI)) of 170 mg/kg. The LD50 (Acute toxicity in mice; po, starved male mice (NMRI), M = 378.5) was 450 µmol/kg, the LD50 (Acute toxicity in mice; sc, male mice (NMRI)) was 50 mg/kg and the LD50 (Acute toxicity in mice; sc, male mice (NMRI), M = 378.5) was 130 µmol/kg.
With `CC(C)(C)NCC(O)c1cc(O)cc(O)c1` (centres unmarked) [Terbutaline, terbutaline, reference compound] the ED50 [4, 5] was 5.28 ± 0.86 µmol/kg, the ED50 [4, 6] was 0.93 ± 0.14 µmol/kg and the “Tremorogenic effect in relation” value [1] was 1. The “Bronchospasmolytic effect in relation” value [2] was 1 and the “Heart stimulating effect in relation” value (heart frequency; cat, in vivo, iv) was 1.
